Results from patent US11992011B2, “Compounds for controlling plant pathogens” (VIB VZW, priority 2017, dated 2024).

Columns and labels:
[1] = tested on: Meloidogyne graminicola; experiment: Meloidogyne graminicola infection in wheat cv. Sahara (Example 5); assay type: in vivo; conditions: infected wheat, foliar spray; for Number of galls per AR / Number of galls: n = 9; for Number of galls: per root system; for reduction in gall numbers: vs control
Description: For Examples 1, 5 and 10, seeds of the winter wheat cultivar Sahara (Aveve Agrarisch, Landen, Belgium) were used. Seeds were washed in a 10% ethanol solution to remove any residual traces of fungicide and then germinated on wet paper at room temperature for four days; seeds were transferred to SAP tubes and placed in a growth chamber (25° C., 16 hours per day of light). Plants were watered with 8 ml of half-strength Hoagland solution every two days for the first ten days and with 8 ml of full strength Hoagland solution every two days afterwards.
Unless otherwise mentioned, all chemicals for nematode experiments were applied as a foliar spray consisting of the target compound at a concentration of 300 μM together with 0.1% (v/v) Tween 20 surfactant (Calbiochem) in distilled water. Again unless otherwise mentioned, all treatments for the nematode experiments were carried out three times: one and eight days before pathogen inoculation and seven days after pathogen inoculation. In all cases, plants were sprayed until run-off with an atomizer.
Infection experiments with M. graminicola were performed by inoculating host plants 14 days after transfer to SAP by introducing the desired amount of J2 juveniles next to the root system using a micro pipette. Rice plants (cv. Nipponbare or Kitaake) were inoculated with 250 J2 juveniles per plant; wheat plants (cv. Sahara) were inoculated with 600 J2 juveniles per plant. Plants were harvested 14 days after inoculation. At this point, the plants were phenotyped by measuring the shoot and root length with a ruler, counting the number of adventitious roots and in some experiments by measuring leaf area using the EasyLeafArea software (Easlon and Bloom, 2014) and by determining shoot dry mass after 72 hours of drying in an oven at 70° C. Root systems were then stained in acid fuchsine as described in (Byrd et al., 1983) and left to destain in glycerol with 1 ml/l fuming HCl added for approximately ten days. The number of galls and nematodes was then counted using a binocular microscope.
In this experiment, the compounds PA, MDCA and 4-IBA were tested as foliar spray in the monocot staple crop wheat (Triticum aestivum, cv. Sahara) against the nematode Meloidogyne graminicola. The bacterial compound LPS (lipopolysaccharide), which is a potent inducer of the plant immune system and a known priming agent (Desaki et al., 2006), was also included as a positive control.

[2] = tested on: Fusarium proliferatum (isolate Fpr18); experiment: Onion seedling emergence with PA seed coating, Fusarium proliferatum (Example 12); assay type: in vivo; conditions: onion seeds with 300 μM PA coating vs mock coating
Description: Seed coatings were applied by dipping seeds in a coating solution containing 20 g/I high viscosity carboxymethylcellulose (Sigma-Aldrich, Saint Louis, USA) in distilled water as well as 300 μM of the target compound. Seeds were then dried overnight at room temperature.
Onion seeds were coated with a 300 μM PA solution as outlined in the chemical treatments section. F. oxysporum (isolate Foc26), F. solani (isolate Fso18) and F. proliferatum (isolate Fpr18) were originally extracted from Vietnamese onion fields. Inoculum was obtained as described in the fungal culture section. The inoculum was diluted to a concentration of 1.0×10^7 spores per ml with sterile PBS buffer. The coated seeds were then soaked in the spore solution for one hour. To avoid excessive PA leaching from the PA coating, 100 μM of PA was added to the spore solution.
After soaking in the PA solution, seeds were left to dry for thirty minutes. Twenty seeds were then sowed per pot in potting soil; three pots were used per treatment and per fungal isolate (for a total of 60 seeds per treatment-isolate combination). The pots were covered in cling film and left on a window sill at room temperature. After eight and ten days, the number of germinated seedlings per pot was counted.
Germination experiments were analyzed by fitting a three-parameter log-logistic model as implemented in the R drc package.

[3] = tested on: Arabidopsis thaliana seedlings; experiment: Primary root elongation of Arabidopsis thaliana seedlings (IC50-root); assay type: in vivo; conditions: continuous exposure, unpublished data
[4] = tested on: OsAOS2; experiment: qRT-PCR in rice roots, OsAOS2 (Example 20); assay type: in vivo, Oryza sativa; conditions: rice cv. Bomba root tissue; same samples as Example 19
Description: After quality control, qPCR was carried out.
To test whether other defense hormones might be involved, genes responsive to jasmonic acid (the biosynthesis gene OsAOS2) and auxin (the auxin conjugating enzyme OsGH3.1) were investigated. Moreover, the callose-degrading enzyme OsGNS5, downregulation of which is associated with basal defense, was also investigated. The qRT-PCR analysis was performed on the same samples used in the previous Example.

[5] = tested on: Heterodera schachtii; experiment: Heterodera schachtii infection in sugar beet (Example 9); assay type: in vivo; conditions: 10 μM PA
Description: Sugar beet seeds (cultivar Jolgeh) were germinated for five days at 25° C. on sterile potting soil saturated with distilled water. Seedlings were transferred to SAP tubes, which were placed in a growth chamber at 24° C. (16h per day of fluorescent lighting). The first two days after transfer, the tubes were covered with a polyethylene film (Saran Film, Dow Chemicals, Midland, USA) to prevent excessive evaporation. Seedlings were watered three times per week with 8 ml of Hoagland solution.
Cysts were collected from sugar beets (cv. Jolgeh) kept in a growing chamber at 21° C. through a flotation protocol. Plant roots and their surrounding soil were placed in a water bath at room temperature and gently agitated, followed by decanting and sieving to allow collection of cysts. Cysts were are-dried for two days and stored until use.
Hatching of cysts was induced by exposing them to a zinc chloride solution (3 mM in distilled water) at 25° C. for three days. Five 100 μl samples were taken from this suspension. The number of J2 juveniles in each sample was counted and the results were averaged. Sugar beet plants were inoculated fourteen days after transfer to SAP with the required volume of suspension to inoculate each plant with an average of 250 J2 nematodes.
Infection experiments with H. schachtii were performed by inoculating host plants 14 days after transfer to SAP by introducing 250 J2 juveniles to their root system using a micro pipette. Plants were harvested 31 days after inoculation. At this point, the plants were phenotyped by measuring the root and shoot length with a ruler. Cysts were collected through a sucrose flotation protocol and then counted and microscopically assessed for maturity.
To test whether the compounds of the invention are effective against other nematodes and in other plant species, PA was tested on the interaction between the dicot crop sugar beet (Beta vulgaris) and the cyst nematode Heterodera schachtii. At this point, it was not known whether dicots would tolerate PA as well as monocots and so a much lower dose (10 μM) was used instead.

[6] = infected sugar beet, mean ± SD, n = 8

Row | SMILES | Number of galls per AR [1] | Number of galls [1] | reduction in gall numbers [1] [%] | improvement of seedling emergence [2] | IC50 [3] [µM] | Fold change vs. control, OsAOS2 expression [4] | Number of mature cysts [5, 6] | Proportion of mature cysts [5, 6] | Total number of cysts [5, 6] | reduction of the number of Heterodera schachtii nematodes ([5]; sugar beet, statistically insignificant) [%]
1 | O=C(O)/C=C/c1ccc2c(c1)OCO2 [MDCA, 3,4-methylenedioxycinnamic acid] | 2.4 ± 0.8 | 24.6 ± 6.3 | −35 | – | – | – | – | – | – | –
2 | O=C(O)c1ccc2c(c1)OCO2 [PA, Piperonylic acid] | 2.5 ± 1.1 | 25.6 ± 6.5 | −33 | +79% | 40 | 0.71 | 7.5 ± 4.4 | 0.48 ± 0.25 | 15.3 ± 0.7 | 20
